Assay results from patent US12338229B2, “Small molecule stimulators of steroid receptor coactivator-3 and methods of their use as cardioprotective and/or vascular regenerative agents” (BAYLOR COLLEGE OF MEDICINE, priority 2018, dated 2025).
“And” between values parts separate entries of the source, which are not always exact repeats. Equal values may be shown once.

How the values were obtained:
[1] = Pharmacokinetics in CD-1 mice (plasma, HPLC-MS/MS)
Method: Each of the three compounds was dissolved in DMSO (20 mg/mL), mixed with 30% hydroxypropyl-β-cyclodextrin at a 1:9 ratio, and administered to the CD-1 mice intraperitoneally (ip) or orally (po) through a gavage. After compound administration, blood samples (3 mice per compound) were collected at nine time points, i.e., at 5 minutes, 0.25 hours, 0.5 hours, 1 hour, 2 hours, 4 hours, 8 hours, 12 hours, and 24 hours, through the tail vein. Plasma was isolated from these blood samples and the compound plasma concentrations were determined by HPLC-MS/MS. Pharmacokinetic parameters were calculated using the program PKSolver, an add-in program for use in analyzing pharmacokinetic and pharmacodynamics data analysis, as described in Zhang et al., Computer Methods and Programs in Biomedicine, 99: 306-314 (2010).

[2] = tested on: mice after myocardial infarction; assay: Myocardial infarction model, permanent LAD ligation (echocardiography, histology, immunostaining, PET, EM); assay type: in vivo, ICR (CD1) mice; conditions: repeat injections three days at weeks 8 and 16
[3] = tested on: mice after myocardial infarction; assay: as above; assay type: in vivo, ICR (CD1) mice
Method: Model of heart failure in adult mice. To induce myocardial infarction (MI) in 8- to 10-week-old mice, the left anterior descending (LAD) artery was permanently ligated. Briefly, mice were anesthetized with 2% isoflurane and then intubated. The heart was exposed by performing a thoracotomy through the fourth or fifth intercostal space and an 8-0 nylon suture was tied around the LAD artery. 10 uls of Adenoviral SRC-3 (Ad-SRC-3) or adenoviral GFP (Ad-GFP) at a titre of 9×10^9 pfu/ml was injected into the anterior free wall near left ventricular descending coronary artery. To assess cell cycle entry, the analog 5-ethynyl-2′-deoxyuridine (EdU; 0.2 g/L, Santa Cruz, SC-284628A) was added to the drinking water for the 9 day duration of the experiment. Cell proliferation was measured using Click-iT EdU kit (Invitrogen, C10339). The initial dose of MCB-613 was administered intraperitoneally at 20 mg/kg 2 hours after surgery. Subsequent injections of the same dose were given for 6 additional days, and then repeated doses were given for 3 days at week 9 and week 16. Mice were harvested at indicated time points for analyses.
Echocardiography. Cardiac function was determined by echocardiography (VisualSonics, Vevo 2100, 40 Mhz-550S probe). After alignment in the transverse B-mode with the papillary muscles, cardiac function was measured on M-mode images.
(§1) Histological analysis. Whole hearts were fixed with 10% formalin, embedded in paraffin, and sectioned at 7 μm intervals. Each slide had 3 or 10 sections, which started at the apex and ended at the suture ligation site (approximately 30-50 slides). Sections at the papillary level (slides 20-30) were stained with Picrosirius red to identify areas of fibrosis. Infarct size was determined using a length-based approach.
Immunostaining analysis. Immunohistochemistry and immunofluorescent staining experiments were performed on FFPE (formalin-fixed and paraffin-embedded sections). TUNEL staining to detect apoptotic cells was done using the DeadEnd™ Fluorometric TUNEL System manufacturer's protocol (Promega, GS3250).
Model of heart failure in adult mice. To induce MI in eight- to ten-week-old mice, the left anterior descending (LAD) artery was permanently ligated. Briefly, mice were anesthetized with 2% isoflurane and then intubated. The heart was exposed by performing a thoracotomy through the fourth or fifth intercostal space and an 8-0 nylon suture was tied around the LAD. The initial dose of MCB-613 was administered intraperitoneally at 20 mg/kg, two hours after surgery. Subsequent injection at the same time of the day and same dose were given for six additional days, and then repeated doses were given for three days at week nine and week 16. Mice were harvested at the indicated time points for analyses.
Echocardiography. Cardiac function was determined by echocardiography (VisualSonics, Vevo 2100, 40 Mhz-550S probe). After alignment in the transverse B-mode with the papillary muscles, cardiac function was measured on M-mode images. Animal numbers for cardiac function in FIG. 11A are Day 0 control (17); MCB-613 (15), Day 1 control (10); MCB-613 (12), Day 14 […], Day 56 control (12); MCB-613 (15), Day 70 control (8); MCB-613 (10), Day 80 control (8); MCB-613 (11), Day 133 control (3); and MCB-613 (3).
as §1, with “three (3) to ten (10)” for “3 or 10”, “approach. TUNEL staining to detect apoptotic cells was performed using the DeadEnd™ Fluorometric TUNEL System (Promega, GS3250).” for “approach.”
Electron Microscopy. […]

## CCC1C/C(=C\c2cccnc2)C(=O)/C(=C/c2cccnc2)C1 (centres unmarked) [MCB-613]
[1]; intraperitoneal
  AUC(0-inf): 129.6 ng·h/mL
  AUC(0-t): 122.2 ng·h/mL
  Cl: 6.4 (mg)/(ng/mL)/h
  Cmax: 49.2 ng/mL
  Terminal phase t1/2: 390 min
  Tmax: 4.8 min
  t1/2: 51.6 min
[1]; oral (gavage)
  AUC(0-inf): 24.3 ng·h/mL
  AUC(0-t): 15.7 ng·h/mL
  Cl: 34 (mg)/(ng/mL)/h
  Cmax: 5.6 ng/mL
  Terminal phase t1/2: 966 min
  Tmax: 15 min
  t1/2: 56.4 min
[2]
  effect of repeat injections on ejection fraction: did not alter ejection fractions
[3]; 2 weeks post-MI
  18F-FDG uptake in infarct zone (cardiac PET): Improved ^18F-FDG uptake in the infarct zone
[3]; 10 weeks post-MI, picrosirius red
  infarct size vs saline control: decrease in infarct size
[3]; 12 weeks post-MI
  heart weight (vs tibia length), cardiomegaly: attenuated the MI-induced cardiomegaly compensatory response
[3]; 12 weeks post-MI, Picrosirius red
  cardiomyocyte size and fibrosis in infarct border zone: cardiomyocytes were smaller and associated with less fibrosis in the infarct border zone
[3]; 12 weeks post-MI, individual hearts, control 31% and 44%
  infarct size (Picrosirius red, % length): 3% and 14% and 20% and 22%
[3]; 24 hours post-MI
  apoptosis (TUNEL): prevents apoptosis
[3]; 24 hours post-MI, 20 mg/kg ip two hours post-MI, control 30%
  average ejection fraction: 43%
[3]; 24 hours post-MI, vs control
  LYZ1 granule expression in myocardium: LYZ1 granule expression was significantly increased
[3]; 72 hours post-MI
  myofibrillar and mitochondrial structure (electron micrographs): prevent disorganization of myofibrillar structure and abnormal mitochondrial cristal architecture
[3]; from 24 hours until 19 weeks post-MI, 20 mg/kg ip 2 h post-MI and six additional days
  ejection fraction maintained: above 40%
[3]; three days post-MI, treated two hours post-MI
  angiogenesis in infarct border zone (CD31 immunostain): Increased angiogenesis was observed in the infarct border zone
